Measurements: US9783590B2 (priority 2003, dated 2017)

Assays:
T2R16 = target: T1, T2R16 (Homo sapiens, UniProt Q9NYV7); conditions: in vitro cell based assays, Bufe et al. 2002; cited from earlier work
T1 sequence (Q9NYV7 1-291): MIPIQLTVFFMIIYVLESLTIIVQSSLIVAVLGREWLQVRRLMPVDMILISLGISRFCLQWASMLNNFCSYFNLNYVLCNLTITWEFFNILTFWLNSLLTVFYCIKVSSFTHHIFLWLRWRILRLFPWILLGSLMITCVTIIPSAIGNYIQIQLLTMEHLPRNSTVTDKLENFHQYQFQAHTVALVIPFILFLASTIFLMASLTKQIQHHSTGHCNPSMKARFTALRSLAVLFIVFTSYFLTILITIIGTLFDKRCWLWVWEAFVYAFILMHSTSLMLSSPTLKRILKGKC

human subjects = assay: PTC phenotype determination (blinded sorting taste threshold test); format: in vivo
Excerpt: Subjects began tasting a solution of 1 micromolar PTC (solution #14) and proceeded in 2-fold increasing concentration increments (solutions 13, 12, 11 . . . ) until a bitter taste was perceived. Subjects then performed a blinded sorting test containing 3 cups of PTC solution and 3 cups of water. Raw taste threshold was the most dilute solution at which the subject could correctly sort all 6 cups. We also included a quinine threshold measurement according to Blakeslee & Salmon (Proc. Natl. Acad. Sci. USA 21, 84, 1935) to identify and exclude individuals with general deficits in bitter taste (aguesia). For dichotomous assignment of phenotype, we considered individuals unable to taste PTC before solution #6, i.e. at concentrations less than 267 micromolar PTC, to be non-tasters. Although the classic method includes corrections for age and sex, analysis of our raw PTC taste threshold data indicated only a modest sex effect, with females more sensitive than males (p=0.00324, proportion of variance explained=5.1%). No effect of age on PTC scores was observed. As a result, raw PTC threshold scores were used for all analyses.
The Utah C.E.P.H. families were enrolled in conjunction with the Utah Genetic Reference Project under University of Utah IRB approved protocol #6090-96, and consisted of individuals of Northern European ancestry. Subjects in the NIH replication sample were enrolled under NIH/NINDS IRB approved protocol # DC-01-230, and were of European, Asian, African American, and Native American ancestry. Human Diversity Panel DNAs (sub-Saharan African, Asian, and Southwest Native American) and primate DNAs were obtained from the Coriell Cell Repository, Camden, N.J. The Utah sample consists of 27 families comprising 269 individuals; both haplotype and phenotype information was available for 180 of these individuals. The NIH replication sample of consisted of 85 unrelated individuals of known haplotype and phenotype; 51 were European, 5 Pakistani, 23 East Asian, and 6 African-American. One African-American is not considered in the analysis due to a rare AAV/AAI diplotype. H is raw PTC score is 7.

Row | Structure (SMILES) | receptor response to tastant (T2R16) | mean PTC score (human subjects; AVI homozygotes, NIH sample) | mean PTC score (human subjects; AVI homozygotes, Utah sample) | mean PTC score (human subjects; PAV heterozygotes, NIH sample) | mean PTC score (human subjects; PAV heterozygotes, Utah sample) | mean PTC score (human subjects; PAV homozygotes, NIH sample) | mean PTC score (human subjects; PAV homozygotes, Utah sample, score = number of most dilute solution correctly sorted (#14 = 1 micromolar, 2-fold steps)) | raw PTC score (human subjects; one subject, AAV/AAI diplotype, NIH sample)
1 | OCc1ccccc1O[C@@H]1O[C@H](CO)[C@@H](O)[C@H](O)[C@H]1O [salicin] | responds |  |  |  |  |  |  | 
2 | NC(=S)Nc1ccccc1 [PTC, phenylthiocarbamide] |  | 1.86 | 4.31 | 8.81 | 9.65 | 10.00 | 10.69 | 7
